Reference: PubChem BioAssay (NCI)
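Step 1: Grow cells in 96-well plates. Step 2: Expose to compound for 48 hours at 5 concentrations. Step 3: Interpolate endpoints linearly; if unreached, use highest concentration. GI50 marks 50% less growth. The concentration for full growth arrest is given as TGI.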

Experiments:
Test in all cases: DTP human tumour cell line panel, 48 h
[1] = system: EKVX NSCLC
[2] = system: OVCAR-3 ovarian
[3] = system: NCI-H23 lung
[4] = system: SW-620 colon
[5] = system: MALME-3M melanoma
[6] = system: UACC-62 melanoma
[7] = system: OVCAR-8 ovarian
[8] = system: HOP-62 NSCLC
[9] = system: M14 melanoma
[10] = system: NCI-H460 lung
[11] = system: 786-0 renal
[12] = system: RPMI-8226 leukemia

COC1C=CC(O)C(CO)O1 (stereo not drawn)
TGI [1]: > 100 µM | TGI [2]: > 100 µM | TGI [3]: > 100 µM | TGI [4]: > 100 µM | TGI [5]: > 100 µM | TGI [6]: > 100 µM | TGI [7]: > 100 µM | TGI [8]: > 100 µM | TGI [9]: > 100 µM | TGI [10]: > 100 µM

COC(CNC(=O)C(C)NC(=O)CCc1ccccc1)OC (stereo not drawn)
TGI [1]: > 100 µM | TGI [3]: > 100 µM | TGI [4]: > 100 µM | TGI [11]: > 100 µM | TGI [5]: > 100 µM | TGI [6]: > 100 µM | TGI [7]: > 100 µM | TGI [12]: > 100 µM | TGI [9]: > 100 µM | TGI [10]: > 100 µM

Cc1nc(-c2cc3cc([N+](=O)[O-])ccc3oc2=O)cs1
TGI [1]: > 100 µM | TGI [4]: > 100 µM | TGI [11]: > 100 µM | TGI [6]: > 100 µM | TGI [8]: > 100 µM | TGI [12]: > 100 µM | TGI [9]: > 100 µM | TGI [10]: > 100 µM

O=C(NNC(=S)Nc1cccc(Cl)c1)c1cc(-c2ccccc2)nc2ccccc12
TGI [2]: 34.3 µM | TGI [3]: 34.4 µM | TGI [4]: 31.3 µM | TGI [11]: 31.2 µM | TGI [5]: 29.9 µM | TGI [6]: 26.7 µM | TGI [7]: 53.3 µM | TGI [8]: 32.1 µM | TGI [12]: 75.3 µM | TGI [9]: 33.7 µM | TGI [10]: 39.6 µM

O=C1CC(=Nc2ccc(Cl)cc2)C(c2ccccc2)N1c1ccccc1 (stereo not drawn)
TGI [1]: > 100 µM | TGI [2]: 14.5 µM | TGI [3]: 70.9 µM | TGI [4]: > 100 µM | TGI [11]: > 100 µM | TGI [5]: 90.8 µM | TGI [6]: 6.6 µM | TGI [8]: > 100 µM | TGI [12]: 13.1 µM | TGI [9]: 33.8 µM | TGI [10]: > 100 µM

Cc1c(S(=O)(=O)/N=C(\NO)Nc2ccc(Cl)c(Cl)c2)sc2ccc(Cl)cc12
TGI [1]: 27.4 µM | TGI [2]: 31.1 µM | TGI [3]: 36.6 µM | TGI [4]: > 100 µM | TGI [11]: 39.6 µM | TGI [5]: 42.6 µM | TGI [6]: 37.2 µM | TGI [7]: 46.6 µM | TGI [8]: 42.3 µM | TGI [12]: > 100 µM | TGI [9]: 44.1 µM

CCOC(=O)/C=C(/C(=O)OCC)n1ccc(=O)n(Cc2cn(COCCOC(C)=O)nn2)c1=O
TGI [1]: 30.6 µM | TGI [2]: 33.4 µM | TGI [3]: 41.4 µM | TGI [4]: 29 µM | TGI [11]: > 100 µM | TGI [6]: 36.7 µM | TGI [7]: 30 µM | TGI [8]: > 100 µM | TGI [12]: 50.3 µM | TGI [10]: 29 µM

COc1ccc(C2OC[C@H]3O[C@@H](OCc4ccccc4)[C@H](O)[C@@H](O)[C@@H]3O2)cc1 (stereo partly drawn)
TGI [1]: > 100 µM | TGI [2]: > 100 µM | TGI [3]: > 100 µM | TGI [4]: > 100 µM | TGI [6]: > 100 µM | TGI [7]: > 100 µM | TGI [8]: > 100 µM | TGI [12]: > 100 µM | TGI [10]: > 100 µM

O=P(Nc1ccc(Cl)cc1)(Oc1ccccc1)N(CCCl)CCCl (stereo not drawn)
TGI [1]: > 100 µM | TGI [2]: > 100 µM | TGI [3]: > 100 µM | TGI [4]: > 100 µM | TGI [5]: > 100 µM | TGI [6]: > 100 µM | TGI [7]: > 100 µM | TGI [8]: > 100 µM | TGI [9]: > 100 µM

CC(C)=CCC/C(C)=C/C=C/C(C)=C/C=C/C(C)=C/C=C/C=C(C)/C=C/C=C(C)/C=C/[C@H]1C(C(C)(C)O)CC[C@]1(C)O (stereo partly drawn)
TGI [1]: > 100 µM | TGI [2]: 37.8 µM | TGI [3]: 72.7 µM | TGI [4]: 65.8 µM | TGI [11]: 46.8 µM | TGI [7]: 52.2 µM | TGI [8]: 40.8 µM | TGI [12]: 54.5 µM | TGI [9]: 91.1 µM | TGI [10]: > 100 µM

NC(Cc1ccccc1)C(=O)N[C@H]1c2ccsc2/C(=N/O)[C@H]1O (stereo partly drawn)
TGI [1]: > 100 µM | TGI [2]: > 100 µM | TGI [3]: > 100 µM | TGI [4]: > 100 µM | TGI [5]: > 100 µM | TGI [6]: > 100 µM | TGI [7]: > 100 µM | TGI [8]: > 100 µM | TGI [9]: > 100 µM | TGI [10]: > 100 µM

O=C1C=C(C2=CC(=O)C(=O)c3ccccc32)c2ccccc2C1=O
TGI [1]: > 100 µM | TGI [2]: 20.7 µM | TGI [3]: > 100 µM | TGI [4]: 31.4 µM | TGI [11]: > 100 µM | TGI [5]: > 100 µM | TGI [6]: > 100 µM | TGI [7]: 75.7 µM | TGI [8]: 64.6 µM | TGI [12]: 46.2 µM | TGI [9]: > 100 µM

CCOc1cn(C2CC(O)C(CO)O2)c(=O)[nH]c1=O (stereo not drawn)
TGI [1]: > 100 µM | TGI [2]: > 100 µM | TGI [3]: > 100 µM | TGI [4]: > 100 µM | TGI [11]: > 100 µM | TGI [5]: > 100 µM | TGI [6]: > 100 µM | TGI [8]: > 100 µM | TGI [12]: > 100 µM | TGI [9]: > 100 µM | TGI [10]: > 100 µM

C=CC(CCc1ccc(C(=O)OCC)cc1)c1c(N)nc(N)[nH]c1=O (stereo not drawn)
TGI [2]: > 100 µM | TGI [3]: > 100 µM | TGI [4]: > 100 µM | TGI [11]: > 100 µM | TGI [5]: > 100 µM | TGI [6]: > 100 µM | TGI [7]: > 100 µM | TGI [8]: > 100 µM | TGI [12]: > 100 µM | TGI [9]: > 100 µM | TGI [10]: > 100 µM

Cc1ccc(-c2c(C#N)c(-c3ccc(Cl)cc3)c(C#N)c(=O)n2NS(=O)(=O)c2ccc(C)cc2)cc1
TGI [1]: > 100 µM | TGI [4]: > 100 µM | TGI [11]: > 100 µM | TGI [5]: > 100 µM | TGI [6]: 45 µM | TGI [7]: > 100 µM | TGI [8]: > 100 µM | TGI [9]: 60.2 µM | TGI [10]: > 100 µM

O=C(NI1OC(=O)c2ccccc21)c1ccc(Cl)cc1
TGI [1]: > 100 µM | TGI [2]: > 100 µM | TGI [3]: > 100 µM | TGI [4]: > 100 µM | TGI [11]: > 100 µM | TGI [6]: > 100 µM | TGI [7]: > 100 µM | TGI [8]: > 100 µM | TGI [12]: > 100 µM | TGI [9]: > 100 µM | TGI [10]: > 100 µM

O=C1C=CC[C@H]2O[C@@H](COC(=O)Cc3ccccc3)C[C@H]2O1
TGI [1]: 70.1 µM | TGI [2]: > 100 µM | TGI [3]: 66.6 µM | TGI [4]: > 100 µM | TGI [6]: > 100 µM | TGI [7]: 77.9 µM | TGI [8]: > 100 µM | TGI [12]: > 100 µM | TGI [9]: > 100 µM | TGI [10]: > 100 µM

CNc1ccc(C(=O)CC(O)CCC(C)C2OC(=O)CC(O)CC(=O)CC(O)CC(O)CC(O)CC(O)CC3(O)CC(O)C(C(=O)OC)C(CC(O[C@@H]4O[C@H](C)[C@@H](O)[C@H](N)[C@@H]4O)/C=C/C=C/C=C/C=C/C=C/C=C/C=C/C2C)O3)cc1 (stereo partly drawn)
GI50 [2]: 2.73 µM | TGI [2]: 6.26 µM | GI50 [3]: 1.92 µM | TGI [3]: 4.84 µM | GI50 [4]: 5.33 µM | TGI [4]: 40.5 µM | GI50 [6]: 2.49 µM | TGI [6]: > 100 µM | GI50 [8]: 2.27 µM | TGI [8]: 5.03 µM | GI50 [12]: 3.57 µM | TGI [12]: 54.5 µM | GI50 [9]: 2.26 µM | TGI [9]: 7.32 µM | GI50 [10]: 2.97 µM | TGI [10]: 10.1 µM

NC(N)=NCCC[C@H](N)C(=O)NCC(=O)N[C@@H](CC(=O)O)c1ncc(NC(=O)C(F)(F)F)o1
TGI [1]: > 25 µM | TGI [2]: > 25 µM | TGI [3]: > 25 µM | TGI [4]: > 25 µM | TGI [11]: > 25 µM | TGI [5]: > 25 µM | TGI [6]: > 25 µM | TGI [7]: > 25 µM | TGI [8]: > 25 µM | TGI [9]: > 25 µM | TGI [10]: > 25 µM

OCC(O)COCn1nncc1Cn1ncc2c(SCc3ccccc3)ncnc21 (stereo not drawn)
TGI [1]: > 100 µM | TGI [2]: > 100 µM | TGI [3]: > 100 µM | TGI [4]: > 100 µM | TGI [11]: > 100 µM | TGI [6]: > 100 µM | TGI [7]: > 100 µM | TGI [8]: > 100 µM | TGI [9]: > 100 µM
